≈ marks a conversion by molar mass, not a printed value.
Columns and labels:
[1] = system: antibiotic-resistant microorganisms; settings: J. Antibiotics, 24 (10) 711, (1971); cited from earlier work
[2] = system: Staphylococcus aureus 6538P; assay: paper disk method, inhibitory zone diameter; type: cell-based; settings: read-out: inhibitory zone diameter
Klebsiella 7 = assay: paper disk method, inhibitory zone diameter; type: cell-based; settings: Klebsiella, 7, read-out: inhibitory zone diameter
Pseudomonas 1007 = assay: paper disk method, inhibitory zone diameter; type: cell-based; settings: Pseudomonas, 1007, read-out: inhibitory zone diameter
[3] = system: E. coli HL-1629 (Kanamycin-resistant strain); assay: microbe, parasite or virus in culture; type: cell-based; settings: Escherichia coli, read-out: inhibitory zone diameter
Klebsiella 6 = assay: paper disk method, inhibitory zone diameter; type: cell-based; settings: Klebsiella, 6, read-out: inhibitory zone diameter
E. coli K-12 = assay: paper disk method, inhibitory zone diameter; type: cell-based; settings: Escherichia coli, K12, read-out: inhibitory zone diameter
Mycobacterium 607 = assay: paper disk method, inhibitory zone diameter; type: cell-based; settings: Mycobacterium, 607, read-out: inhibitory zone diameter
[4] = system: Bacillus subtilis ATCC 6633; assay: paper disk method, inhibitory zone diameter; type: cell-based; settings: ATCC6633, read-out: inhibitory zone diameter
Proteus morganii Kono = assay: antibacterial activity (Minimum Inhibitory Concentration); type: cell-based; settings: Morganella morganii
[5] = system: Bacillus anthracis No. 119; assay: microbe, parasite or virus in culture; type: cell-based
Proteus species C73-23 = assay: antibacterial activity (Minimum Inhibitory Concentration); type: cell-based
[6] = system: Enterococcus species C73-17; assay: as above; type: cell-based; settings: Enterococcus, C7317
E. coli C73-1 = assay: as above; type: cell-based; settings: Escherichia coli, C731
[7] = system: Bacillus subtilis ATCC 6633; assay: as above; type: cell-based; settings: Bacillus subtilis, ATCC6633
[8] = system: Staphylococcus aureus C73-10; assay: as above; type: cell-based; settings: Staphylococcus aureus, C7310
[9] = system: Enterococcus species C73-33; assay: as above; type: cell-based; settings: Enterococcus, C7333
Proteus species C73-33 = assay: as above; type: cell-based
[10] = system: Shigella dysenteriae Shigae; assay: microbe, parasite or virus in culture; type: cell-based
[11] = system: Vibrio parahaemolyticus K-7; assay: antibacterial activity (Minimum Inhibitory Concentration); type: cell-based; settings: Vibrio parahaemolyticus, K7
E. coli C73-4 = assay: as above; type: cell-based; settings: Escherichia coli, C734
[12] = system: Vibrio parahaemolyticus K-3; assay: as above; type: cell-based; settings: Vibrio parahaemolyticus, K3
[13] = system: Staphylococcus aureus C73-4; assay: as above; type: cell-based; settings: Staphylococcus aureus, C734
[14] = system: Staphylococcus aureus C73-21; assay: as above; type: cell-based; settings: Staphylococcus aureus, C7321
[15] = system: Salmonella species C73-30; assay: as above; type: cell-based; settings: C7330
Klebsiella pneumoniae = assay: as above; type: cell-based
[16] = system: Staphylococcus aureus Smith S-424; assay: as above; type: cell-based; settings: Staphylococcus aureus, SMITHS424
[17] = system: Staphylococcus aureus 209P JC-1; assay: as above; type: cell-based; settings: Staphylococcus aureus, 209P
Proteus species C73-34 = assay: as above; type: cell-based
[18] = system: Vibrio parahaemolyticus K-5; assay: as above; type: cell-based; settings: Vibrio parahaemolyticus, K5
[19] = system: Staphylococcus albus PCI-1200A; assay: as above; type: cell-based; settings: Staphylococcus, PCI1200A
E. coli C73-12 = assay: as above; type: cell-based; settings: Escherichia coli, C7312
[20] = system: Staphylococcus aureus No. 26; assay: as above; type: cell-based; settings: Staphylococcus aureus, NO.26
Proteus species C73-25 = assay: as above; type: cell-based

In the case of `NC[C@@H]1CC[C@@H](N)[C@@H](O[C@H]2[C@H](O)[C@@H](O)[C@H](N)C[C@@H]2N)O1` [3',4'-deoxyneamine], the “antimicrobial activities against antibiotic-resistant microorganisms” value [1] is given as “exhibits antimicrobial activities against various antibiotic-resistant microorganisms”.

`NC[C@H]1O[C@H](O[C@H]2[C@H](O)[C@@H](O)[C@H](N)C[C@@H]2N)[C@H](N)[C@@H](O)[C@@H]1O` [Neamine, neamine, reference compound] gave a zone of inhibition at 7.8 µg/mL [2] of 0 mm, a zone of inhibition at 15.6 µg/mL [2] of 0 mm and a zone of inhibition at 31.2 µg/mL [2] of 0 mm. For the same compound, the zone of inhibition at 62.5 µg/mL [2] was 10 mm, the zone of inhibition at 125 µg/mL [2] was 13 mm and the zone of inhibition at 250 µg/mL [2] was 15.3 mm. For the same compound, the zone of inhibition at 500 µg/mL [2] was 18.3 mm, the zone of inhibition at 1000 µg/mL [2] was 20.7 mm and the zone of inhibition at 2000 µg/mL [2] was 22.8 mm. The zone of inhibition at 2000 µg/mL (Klebsiella 7) was 0 mm, the zone of inhibition at 2000 µg/mL (Pseudomonas 1007) was 0 mm and the zone of inhibition at 1000 µg/mL [3] was 0 mm. For the same compound, the zone of inhibition at 2000 µg/mL [3] was 12.3 mm, the zone of inhibition at 2000 µg/mL (Klebsiella 6) was 0 mm and the zone of inhibition at 7.8 µg/mL (E. coli K-12) was 0 mm. For the same compound, the zone of inhibition at 15.6 µg/mL (E. coli K-12) was 0 mm, the zone of inhibition at 31.2 µg/mL (E. coli K-12) was 11.4 mm and the zone of inhibition at 62.5 µg/mL (E. coli K-12) was 14.3 mm. It also gave a zone of inhibition at 125 µg/mL (E. coli K-12) of 17.2 mm, a zone of inhibition at 250 µg/mL (E. coli K-12) of 20.4 mm and a zone of inhibition at 500 µg/mL (E. coli K-12) of 22.6 mm. It also gave a zone of inhibition at 1000 µg/mL (E. coli K-12) of 25.2 mm, a zone of inhibition at 2000 µg/mL (E. coli K-12) of 27.4 mm and a zone of inhibition at 62.5 µg/mL (Mycobacterium 607) of 0 mm. For the same compound, the zone of inhibition at 125 µg/mL (Mycobacterium 607) was 0 mm, the zone of inhibition at 250 µg/mL (Mycobacterium 607) was 14.8 mm and the zone of inhibition at 500 µg/mL (Mycobacterium 607) was 20.4 mm. The zone of inhibition at 1000 µg/mL (Mycobacterium 607) was 26.4 mm, the zone of inhibition at 2000 µg/mL (Mycobacterium 607) was 32.5 mm and the zone of inhibition at 7.8 µg/mL [4] was 11.5 mm. It also gave a zone of inhibition at 15.6 µg/mL [4] of 14 mm, a zone of inhibition at 31.2 µg/mL [4] of 17 mm and a zone of inhibition at 62.5 µg/mL [4] of 19.9 mm. For the same compound, the zone of inhibition at 125 µg/mL [4] was 23 mm, the zone of inhibition at 250 µg/mL [4] was 25 mm and the zone of inhibition at 500 µg/mL [4] was 28.7 mm. The zone of inhibition at 1000 µg/mL [4] was 31 mm and the zone of inhibition at 2000 µg/mL [4] was 33.5 mm.

With `NC[C@H]1O[C@H](O[C@H]2[C@H](O)[C@@H](O)[C@H](N)C[C@@H]2N)[C@H](N)[C@@H](O)[C@@H]1O` [Neomycin A, reference compound] the MIC (Proteus morganii Kono) was 12.5 µg/mL (≈ 38.8 µM), the MIC [5] was 12.5 µg/mL (≈ 38.8 µM) and the MIC (Proteus species C73-23) was 25 µg/mL (≈ 77.6 µM). It also gave an MIC [6] of 100 µg/mL (≈ 310 µM), an MIC (E. coli C73-1) of 25 µg/mL (≈ 77.6 µM) and an MIC [7] of 1.56 µg/mL (≈ 4.84 µM). For the same compound, the MIC [8] was 3.13 µg/mL (≈ 9.71 µM), the MIC [9] was 12.5 µg/mL (≈ 38.8 µM) and the MIC (Proteus species C73-33) was 100 µg/mL (≈ 310 µM). For the same compound, the MIC [10] was 12.5 µg/mL (≈ 38.8 µM), the MIC [11] was 50 µg/mL (≈ 155 µM) and the MIC (E. coli C73-4) was 25 µg/mL (≈ 77.6 µM). It also gave an MIC [12] of 1.56 µg/mL (≈ 4.84 µM), an MIC [13] of 3.13 µg/mL (≈ 9.71 µM) and an MIC [14] of 0.78 µg/mL (≈ 2.42 µM). For the same compound, the MIC [15] was 25 µg/mL (≈ 77.6 µM), the MIC (Klebsiella pneumoniae) was 12.5 µg/mL (≈ 38.8 µM) and the MIC [16] was 1.56 µg/mL (≈ 4.84 µM). It also gave an MIC [17] of 0.78 µg/mL (≈ 2.42 µM), an MIC (Proteus species C73-34) of 25 µg/mL (≈ 77.6 µM) and an MIC [18] of 50 µg/mL (≈ 155 µM). For the same compound, the MIC [19] was 0.78 µg/mL (≈ 2.42 µM), the MIC (E. coli C73-12) was 12.5 µg/mL (≈ 38.8 µM) and the MIC [20] was 3.13 µg/mL (≈ 9.71 µM). It also gave an MIC (Proteus species C73-25) of 6.25 µg/mL (≈ 19.4 µM).

From patent US4103082A, “Aminocyclitol derivatives and process for producing the same” (priority 1975, dated 1978)
